In US10316008B2, “KCNQ potassium channel agonist, and preparation method therefor and use thereof” (SHANGHAI INSTITUTE OF MATERIA MEDICA, CHINESE ACADEMY OF …, priority 2014, dated 2019):

Key:
[1] = molecular target: T1, KCNQ2 homotetramer channel (Homo sapiens, UniProt O43526); experiment: KCNQ2 channel dose-response curve in CHO-K1 cells transfected with KCNQ2 plasmid; format: cell-based
T1 construct: expressed in transfected cells; host or cells: CHO-K1
Experimental: (§1) The culture medium for Chinese hamster oocytes (CHO-K1) (Culture Collection of Chinese Academy of Sciences): 50/50 DMEM/F-12 (Cellgro, Manassas, Va.), added with 10% fetal bovine serum (FBS) (Gibco, Australia) and 2 mM L-glutamic acid (Invitrogen). Expression of KCNQ channels: 24 h before transfection, CHO-K1 spreaded on a dish with a diameter of 60 mm. Lipofectamine 2000™ agent (Invitrogen) was used for Transfection according to the protocol thereof. GFP (green fluorescent protein) was cotransfected to be used as a indication of successful converting into KCNQ plasmid.
(§2) Whole-cell voltage-clamp recording was performed on an Axopatch-200B amplifier (Molecular Devices, Sunnyvale, Calif.) at room temperature. The electrode was made by drawing borosilicate glass capillary (World Precision Instruments, Sarasota, Fla.). The electric resistance of the electrode filled with an intracellular fluid is 3 to 5 MΩ. The composition of the intracellular fluid (1 L) was as follows: 145 mM KCl(Sigma), 1 mM MgCl2(Sigma), 5 mM EGTA(Sigma), 10 mM HEPES(Sigma) and 5 mM MgATP(Sigma) (pH was adjusted to 7.3 with KOH). During the recording, an extracellular fluid was continuously perfused by using a BPS perfusion system (ALA Scientific Instruments, Westburg, N.Y.). The composition of the extracellular fluid (1 L) was as follows: 140 mM NaCl(Sigma), 5 mM KCl(Sigma), 2 mM CaCl2(Sigma), 1.5 mM MgCl2(Sigma), 10 mM HEPES(Sigma) and 10 mM glucose(Sigma) (pH was adjusted to 7.4 with NaOH). Electric signal was filtered at 1 kHz and further converted into digital signal by using pClamp 9.2 software (Molecular Devices, Sunnyvale, Calif.) in DigiData 1322A. Series resistors compensate 60 to 80%. Up to date, multivoltage scheme was generally adopted, wherein the clamp voltage was set at −80 mV, stimulating voltage was a gradient voltage from −90 mV to 60 mV with interval of 10 mV, and the stimulating time for each voltage was 2000 ms.
(§3) The experimental procedure was the same as that in Electrophysiological Example 1. […]

[2] = molecular target: T2, KCNQ2/3 heterotetramer channel (Homo sapiens, UniProt O43525+O43526); experiment: KCNQ2/3 heterotetramer channel dose-response curve in CHO-K1 cells cotransfected with KCNQ2 and KCNQ3 plasmids; format: cell-based
T2 construct: expressed in transfected cells; host or cells: CHO-K1
Experimental: as §1, §2, §3

T1 sequence (O43526 whole entry): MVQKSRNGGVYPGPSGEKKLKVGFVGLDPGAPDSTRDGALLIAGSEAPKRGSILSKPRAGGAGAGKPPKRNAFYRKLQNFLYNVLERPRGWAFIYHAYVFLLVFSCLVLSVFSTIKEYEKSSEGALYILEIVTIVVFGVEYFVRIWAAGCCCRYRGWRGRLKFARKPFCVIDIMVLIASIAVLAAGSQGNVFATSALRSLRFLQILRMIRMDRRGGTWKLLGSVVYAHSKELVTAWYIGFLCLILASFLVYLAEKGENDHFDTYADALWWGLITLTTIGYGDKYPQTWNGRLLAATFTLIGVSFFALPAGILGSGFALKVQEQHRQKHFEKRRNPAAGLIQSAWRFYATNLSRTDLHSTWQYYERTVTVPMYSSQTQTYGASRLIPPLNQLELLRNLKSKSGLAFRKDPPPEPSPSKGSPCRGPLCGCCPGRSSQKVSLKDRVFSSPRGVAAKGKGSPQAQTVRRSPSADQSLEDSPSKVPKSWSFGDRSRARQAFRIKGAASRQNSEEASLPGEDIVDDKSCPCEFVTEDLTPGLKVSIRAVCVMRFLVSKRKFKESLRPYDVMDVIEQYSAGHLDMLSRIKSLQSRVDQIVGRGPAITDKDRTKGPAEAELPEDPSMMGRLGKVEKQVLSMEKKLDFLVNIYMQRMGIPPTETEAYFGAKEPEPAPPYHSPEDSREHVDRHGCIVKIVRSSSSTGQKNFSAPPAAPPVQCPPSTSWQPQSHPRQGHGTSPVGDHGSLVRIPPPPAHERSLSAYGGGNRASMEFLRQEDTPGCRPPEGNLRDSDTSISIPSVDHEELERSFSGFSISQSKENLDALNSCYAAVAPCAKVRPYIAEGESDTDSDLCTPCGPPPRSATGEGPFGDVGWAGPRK

For `C#CCN(Cc1ccc(F)cc1)c1cc(C)c(NC(=O)OC)c(C)c1` [Compound K43, methyl 4-(N-parafluorobenzyl-N-propargyl-amino)-2,6-dimethylphenylaminoformate], the EC50 ([1]; FIG. 1, Boltzmann fit, read-out: EC50) was 1.53 nM, the “agonistic activity on KCNQ2 homotetramer channel relative to RTG” value ([1]; fold of RTG) was “more than 800 times” and the EC50 ([2]; FIG. 2, Boltzmann fit) was 49 nM. The “agonistic activity on KCNQ2/3 heterotetramer channel relative to K21” value ([2]; fold of K21) was ≥ 20 times and the “agonistic activity on KCNQ2/3 heterotetramer channel relative to RTG” value ([2]; fold of RTG) was ≥ 30 times.
